Consider 9 molecules from patent publication US20100298221A1, “2-PHENOXY NICOTINE ACID DERIVATIVE AND USE THEREOF” (BAYER SCHERING PHARMA AKTIENGESELLSCHAFT, priority 2006, published 2010).

Each structure is given as a SMILES string.

This assay addresses T1, human PPARα-receptor (Homo sapiens, UniProt Q07869).
T1 construct: expressed in transfected cells; host or cells: CHO (chinese hamster ovary) cells, stably transfected
T1 sequence (Q07869 167-468): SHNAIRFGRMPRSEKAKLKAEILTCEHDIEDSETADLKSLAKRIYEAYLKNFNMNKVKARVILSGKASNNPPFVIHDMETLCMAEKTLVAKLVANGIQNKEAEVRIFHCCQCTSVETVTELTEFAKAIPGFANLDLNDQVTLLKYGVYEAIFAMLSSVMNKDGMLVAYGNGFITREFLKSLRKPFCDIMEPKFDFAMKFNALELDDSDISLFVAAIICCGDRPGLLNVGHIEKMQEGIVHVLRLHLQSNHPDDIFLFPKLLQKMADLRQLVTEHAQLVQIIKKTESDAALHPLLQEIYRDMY
The experiment in a line: Cellular transactivation assay (GAL4-PPARα chimera, luciferase reporter, CHO cells). The note with it: CHO cells stably expressing GAL4-PPARα chimera and luciferase reporter; stimulation time 6 h. Type of assay: cell-based. The source says:
A cellular assay is used to identify activators of the peroxisome proliferator-activated receptor alpha (PPAR-alpha).
Since mammalian cells contain different endogenous nuclear receptors which can complicate unambiguous interpretation of the results, an established chimera system is used, in which the ligand binding domain of the human PPARα-receptor is fused to the DNA binding domain of the yeast transcription factors GAL4. The GAL4-PPARα chimera thus formed is co-transfected and expressed stably in CHO cells with a reporter construct.
The GAL4-PPARα expression construct contains the ligand binding domain of PPARα (amino acids 167-468), which is PCR-amplified and cloned into the vector pcDNA3.1. This vector already contains the GAL4 DNA binding domain (amino acids 1-147) of the vector pFC2-dbd (Stratagene). The reporter construct, which contains five copies of the GAL4 binding site upstream of a thymidine kinase promoter, leads to the expression of firefly luciferase (Photinus pyralis) after activation and binding of GAL4-PPARα.
The day before the test, CHO (chinese hamster ovary) cells which stably express the above-described GAL4-PPARα chimera and luciferase reporter gene construct are plated out in 96-hole microtiter plates with 1×10^3 cells in medium (Optimem, GIBCO), 2% activated carbon-purified fetal calf serum (Hyclone), 1.35 mM sodium pyruvate (GIBCO), 0.2% sodium bicarbonate (GIBCO), and kept in a cell incubator (air humidity 96%, 5% v/v CO2, 37° C.). On the day of the test, the substances to be tested are taken up in abovementioned medium, but without addition of calf serum, and added to the cells. After a stimulation time of 6 h, the luciferase activity is measured with the aid of a video camera. The relative light units measured give a sigmoid stimulation curve as a function of the substance concentration. The EC50 values are calculated with the aid of the computer program GraphPad PRISM (Version 3.02).
A general note: In a reporter assay the amount or activity of a reporter protein is the signal.

The EC50 is the concentration giving half of the maximal effect. Read a high EC50 as a need for much substance. `O=C(O)c1ccc(-c2cccc(F)c2F)nc1Oc1ccccc1OC(F)(F)F` [Example 26, 2-(2-Trifluoromethoxyphenoxy)-6-(2,3-difluorophenyl)nicotinic acid]: the EC50 turned out to be 0.076 µM.

The molecule `COc1cccc(-c2cc(C(F)(F)F)c(C(=O)O)c(Oc3ccccc3Cl)n2)c1F` [Example 42, 2-(2-Chlorophenoxy)-6-(2-fluoro-3-methoxyphenyl)-4-trifluoromethylnicotinic acid] displayed an EC50 of 0.541 µM.

`N#Cc1ccc(Cl)c(Oc2nc(-c3cc(F)cc(F)c3)ccc2C(=O)O)c1` [Example 17, 2-(2-Chloro-5-cyanophenoxy)-6-(3,5-difluorophenyl)nicotinic acid] had a half-maximal effective concentration (EC50) of 0.069 µM. Compared with the last molecule, the EC50 is about 7.8-fold lower.

`O=C(O)c1cc(F)c(-c2ccc(C(F)(F)F)cc2)nc1Oc1ccccc1Cl` [Example 38, 2-(2-Chlorophenoxy)-5-fluoro-6-(4-trifluoromethylphenyl)nicotinic acid]: the EC50 was determined as 0.36 µM. Against the preceding molecule, the EC50 is about 5.2-fold higher.

In turn, `O=C(O)c1ccc(-c2ccc(Cl)nc2)nc1Oc1ccccc1Cl` [Example 16, 6′-Chloro-6-(2-chlorophenoxy)-2,3′-bipyridine-5-carboxylic acid] yielded an EC50 of 0.87 µM.

For `Cc1cc(-c2ccc(C(=O)O)c(Oc3ccccc3Cl)n2)ccc1F` [Example 4, 2-(2-Chlorophenoxy)-6-(4-fluoro-3-methylphenyl)nicotinic acid], the EC50 was 0.157 µM.

`Cc1ccc(-c2ccc(C(=O)O)c(Oc3ccccc3Cl)n2)cc1F` [Example 5, 2-(2-Chlorophenoxy)-6-(3-fluoro-4-methylphenyl)nicotinic acid] gave an EC50 of 0.033 µM.

In the case of `Cc1ccc(-c2nc(Oc3ccccc3Cl)c(C(=O)O)cc2F)cc1F` [Example 36, 2-(2-Chlorophenoxy)-5-fluoro-6-(3-fluoro-4-methylphenyl)nicotinic acid], the midpoint of the response, the EC50, lay at 0.034 µM.

For `Cc1ccc(-c2cc(C(F)(F)F)c(C(=O)O)c(Oc3ccccc3Cl)n2)cc1F` [Example 11, 2-(2-Chlorophenoxy)-6-(3-fluoro-4-methylphenyl)-4-(trifluoromethyl)nicotinic acid], it took 0.014 µM to reach a half-maximal effect (EC50).
